According to patent EP0673649A1, “Pharmaceutical compositions for the prolonged release of trimetazidine after oral administration” (ADIR ET COMPAGNIE, priority 1994, dated 1995):

Assays:
[1] = plasticizer added at 20 % to Eudragit RS® film; measured with chlorhydrate de phénylpropanolamine; cited from earlier work
[2] = in vitro dissolution / release of trimetazidine dihydrochloride from reservoir forms; assay type: physicochemical; conditions: release of trimetazidine dihydrochloride through a film containing this plasticizer (figure 1)
[3] = solubility in water of trimetazidine dihydrochloride; assay type: physicochemical; conditions: read-out: solubilité du dichlorhydrate dans l'eau
Method: Le poids moléculaire de la trimétazidine sous forme de base est de 266,33 et la solubilité du dichlorhydrate dans l'eau supérieure à 1000 mg/ml. De ce fait, il était très difficile d'obtenir des comprimés matriciels contrôlant la libération du principe actif sur plus de 16 heures. Ce problème a été résolu par l'utilisation du système réservoir décrit dans la présente invention.

[4] = immediate-release oral forms; background statement; cited from earlier work

| SMILES | Perméabilité [1] [mg.cm⁻².h⁻¹] | temps de latence [2] | solubility [3] [mg/mL] | demi-vie plasmatique [4] [heures] |
| --- | --- | --- | --- | --- |
| CCOC(=O)c1ccccc1C(=O)OCC [Diéthylphtalate] | 14.8 | – | – | – |
| CC(=O)OCC(COC(C)=O)OC(C)=O [Triacétine] | 6.2 | très long qui peut atteindre quatre heures | – | – |
| COc1ccc(CN2CCNCC2)c(OC)c1OC [dichlorhydrate de trimétazidine, 1-(2,3,4-triméthoxybenzyl)pipérazine] | – | – | > 1000 | < 6 |
